The values that follow come from patent publication US8865672B2, “Prevention of tissue ischemia and related methods” (The United States of America, as represented by the …, priority 2006, dated 2014).

Peptide text beside a SMILES is read from it. Bounds are passed on as bounds.

Series [1] deals with blood pressure and pulse in mice. Nature of the series: Blood pressure and pulse measurements (tail cuff). It is filed as in vivo, mouse. The protocol: Mean systolic, diastolic and arterial blood pressure (BP) and mean pulse was measured in age and sex matched mice using a computerized tail cuff system (Hatteras Systems, MC4000 Blood Pressure Analysis System, Cary, N.C.). The mice were allowed to acclimate to the apparatus for 5 min prior to the start of measurement. Each animal underwent a cycle of 10 preliminary and 50 experimental pressures measurements for data acquisition and data calculation. Animals were acclimated to the measuring system and protocol for 4 days with treatment with data acquisition being performed on the 5th day. Pressures recordings were performed at the same time each day. Data was accepted if the mouse had valid readings for at least 20 consecutive pulse beats. All studies were performed at the same hour each day.
Respirations were monitored continuously monitored by direct observation of the animal. Body core temperature was measured via rectal probe. Temperature control was performed using a water-circulating warming surface and heating lamp. Following a 15 minute period of stabilization mean systolic, diastolic and arterial blood pressure and mean pulse measurements were determined.

A further series has as its system NO/cGMP signaling. Nature of the series: cGMP signaling (NO-stimulated cGMP, immunoassay). It is filed as cell-based, human. The conditions noted are these: concentration for 50% inhibition of effect. The procedure: Vascular cells (endothelial) or HT-1080 cells (10^4 cells/well) grown overnight in 12-well culture in SM-GM containing 2% FCS or RPMI+10% FCS respectively and then weaned off serum over 48 h before treatment with NO donors and other agents in serum/additive free medium+0.1% BSA. Intracellular cGMP levels were determined using an enzyme immunoassay (Amersham, GE Health Care, UK). In other experiments fresh washed human platelets were incubated in Tyrode's buffer and the indicated treatment agents±NO and cGMP determined.

Series [2] concerns human platelets. Nature of the series: Thrombin-induced human platelet aggregation. It is filed as cell-based. To be noted: DEA/NO 10 μM. The protocol: Platelets were pelleted from platelet-rich plasma (PRP) by centrifugation for 10 minutes at 200 g. They were then washed with acid citrate dextrose (ACD) (85 mM citric acid, 65 mM sodium citrate, 100 mM glucose, pH 5.1) at a ratio of 1:7 at room temperature. After pelleting the platelets again and removing the supernatant, the platelets were resuspended in 5 mL of Tyrode's buffer (137 mM NaCl, 3 mM KCl, 12 mM NaHCO3, 0.3 mM NaHPO4, 2 mM CaCl2, 1 mM MgCl2, 5.5 mM glucose, 5 mM HEPES, 3.5 mg/mL BSA, pH 7.4). The final platelet number was adjusted to […] in 500 μl/cuvette of Tyrode's buffer.
Aggregation of human platelets under high shear conditions was assessed using a standard optical aggregometer (Lumi-Dual Aggregometer, Chrono-Log Corp., Havertown, Pa.) at 37° C. and 1200 rpm in a volume of 500 μl buffer with a final platelet concentration of 2×10^5 platelets/μl over a 5 minute interval. Pre-incubation with TSP1 and TSP1-based agents was for 15 minutes prior to addition of thrombin and/or the rapidly releasing nitric oxide donor DEA/NO. In some experiments platelets were pre-incubated with the Rap1 inhibitor GGTI-298 (10 μM) (Calbiochem, La Jolla, Calif.) for 30 minutes prior to initiating aggregation. In other high shear aggregation experiments murine platelets were prepared as above with the following modifications. Mouse blood was collected by retro-orbital bleeding of anesthetized mice using heparinized tubes. PRP was prepared and then diluted with 4 vol. of Tyrodes containing 5 mM EDTA to prevent activation. After collection by centrifugation, platelets were resuspended in 2× initial PRP volume and held at room temperature for less than 1 hour before use. Aggregation conditions consisted of 250 μL of washed platelets stirred at 1200 rpm in a Chronolog Optical aggregometer at 37° C. DEA/NO (10 μM) was added 30 seconds prior to activation and 8-BrcGMP added 15 min prior to activation with 0.2 U/ml human thrombin. Data was collected using Chronolog “Aggrolink” software. Platelet aggregation under static conditions was assessed using a spectrophotometer (Beckman DU 640, Beckman Coulter, Fullerton, Calif.) and determined as a change in absorbance at 400 nm with continuous observation over a five minute interval. The cuvette was inverted once every 60 seconds. Pre-incubation with TSP1 and TSP1-based agents was for 15 minutes prior to addition of thrombin and/or DEA/NO to minimize the formation of thrombin-serpinthrombospondin complexes (Chang & Detwiler, Arch Biochem Biophys. 299:100-104, 1992), which interfere with thrombin-platelet interactions.
Fresh human platelets were suspended in Tyrode's buffer and under low shear conditions thrombin-stimulated aggregation measured as described. Platelets were then treated with peptide C6d (1 μM)±NO (10 μM DEA/NO) and thrombin and aggregation measure.

In series [3] the test system is human platelets. Nature of the series: cGMP in human platelets. It is filed as cell-based. The conditions noted are these: washed human platelets in Tyrode's buffer. The protocol:
Fresh human platelets at 2×10^5 platelets/μl in Tyrode's buffer or PRP were pre-incubated with the indicated agents for 15 minutes and then challenged with DEA/NO for the indicated time interval at room temperature and total cGMP determined via immunoassay (Amersham, GE Healthcare, Buckinghamshire, UK). Murine WT and TSP1-null platelets were treated with DEA/NO and cGMP flux measured.

A further series deals with HUVEC. Nature of the series: NO-stimulated HUVEC adhesion on type I collagen. It is filed as cell-based, human. To be noted: DEA/NO 10 μM, 1 h. The protocol:
Cell adhesion was carried out in 96-well culture plates. After pre-coating wells with type I collagen (3 μg/ml in DPBS) harvested cells were plated at a density of 1×10^4 cells/well in medium plus 0.1% BSA and treatment agents and incubated in 5% CO2 for 1 h. Wells were washed with PBS and cells fixed with 1% glutaraldehyde for 10 min., washed and stained with 1% crystal violet for 20 min. Excess stain was rinsed away, adherent cells treated with 10% acetic acid, and plates read at 570 nm.

In the case of `CCCN(CCCN)/[N+]([O-])=N/O` [PAPA/NO], the “mean arterial blood pressure response” value in series [1] (CD47 null animals, i.p.) is on record as “greatest drop in mean arterial blood pressure”. In addition, in series [1] (TSP1 null versus wild type, i.p.), the blood pressure response entry is listed as “drop in mean arterial pressure always greater in the absence of TSP1”. In series [1] (after i.p. challenge), the mean pulse result is reported as “only modestly increased”. Take `CC[C@H](C)[C@H](N)C(=O)NCC(=O)N[C@@H](Cc1c[nH]c2ccccc12)C(=O)N[C@@H](CCCCN)C(=O)N[C@@H](CC(N)=O)C(=O)N[C@@H](Cc1ccccc1)C(=O)N[C@H](C(=O)N[C@@H](C)C(=O)N[C@@H](Cc1ccc(O)cc1)C(=O)N[C@@H](CCCNC(=N)N)C(=O)O)[C@@H](C)O` [compound 37297, IGWKNFTAYR] (H-IGWKNFTAYR-OH): the IC50 in the series on NO/cGMP signaling was above 10 µM. `CC[C@H](C)[C@H](N)C(=O)NCC(=O)N[C@@H](Cc1c[nH]c2ccccc12)C(=O)N[C@@H](CCCCN)C(=O)N[C@@H](CC(=O)O)C(=O)N[C@@H](Cc1ccccc1)C(=O)N[C@@H](C)C(=O)N[C@@H](C)C(=O)N[C@@H](Cc1ccc(O)cc1)C(=O)N[C@@H](CCCNC(=N)N)C(=O)O` [compound 37299, IGWKDFAAYR] (H-IGWKDFAAYR-OH) had an IC50 with NO/cGMP signaling above 10 µM. `CC(=O)N[C@@H](Cc1c[nH]c2ccccc12)C(=O)N[C@@H](CCCCN)C(=O)N[C@@H](CC(=O)O)C(=O)N[C@@H](Cc1ccccc1)C(=O)N[C@H](C(=O)N[C@@H](C)C(=O)N[C@@H](Cc1ccc(O)cc1)C(=O)N[C@@H](CCCNC(=N)N)C(=O)O)[C@@H](C)O` [compound 37300, Ac-WKDFTAYR] (Ac-WKDFTAYR-OH) had an IC50 in the series with NO/cGMP signaling of around 1 µM.

For `CC[C@H](C)[C@H](N)C(=O)NCC(=O)N[C@@H](Cc1c[nH]c2ccccc12)C(=O)N[C@@H](C)C(=O)N[C@@H](CC(=O)O)C(=O)N[C@@H](Cc1ccccc1)C(=O)N[C@H](C(=O)N[C@@H](C)C(=O)N[C@@H](Cc1ccc(O)cc1)C(=O)N[C@@H](CCCNC(=N)N)C(=O)O)[C@@H](C)O` [compound 37413, IGWADFTAYR] (H-IGWADFTAYR-OH), the IC50 in the series on NO/cGMP signaling is above 10 µM.

In the series on NO/cGMP signaling, `CC[C@H](C)[C@H](N)C(=O)NCC(=O)N[C@@H](Cc1c[nH]c2ccccc12)C(=O)N[C@@H](Cc1c[nH]cn1)C(=O)N[C@@H](CC(=O)O)C(=O)N[C@@H](Cc1ccccc1)C(=O)N[C@H](C(=O)N[C@@H](C)C(=O)N[C@@H](Cc1ccc(O)cc1)C(=O)N[C@@H](CCCNC(=N)N)C(=O)O)[C@@H](C)O` [compound 37414, IGWHDFTAYR] (H-IGWHDFTAYR-OH) registered an IC50 above 10 µM. The molecule `CC[C@H](C)[C@H](N)C(=O)NCC(=O)N[C@@H](Cc1c[nH]c2ccccc12)C(=O)N[C@@H](CCCCN)C(=O)N[C@@H](CCC(=O)O)C(=O)N[C@@H](Cc1ccccc1)C(=O)N[C@H](C(=O)N[C@@H](C)C(=O)N[C@@H](Cc1ccc(O)cc1)C(=O)N[C@@H](CCCNC(=N)N)C(=O)O)[C@@H](C)O` [compound 37415, IGWKEFTAYR] (H-IGWKEFTAYR-OH) returned an IC50 with NO/cGMP signaling of 1 µM. Take `C[C@H](N)C(=O)NCC(=O)N[C@@H](Cc1c[nH]c2ccccc12)C(=O)N[C@@H](CCCCN)C(=O)N[C@@H](CC(=O)O)C(=O)N[C@@H](Cc1ccccc1)C(=O)N[C@H](C(=O)N[C@@H](C)C(=O)N[C@@H](Cc1ccc(O)cc1)C(=O)N[C@@H](CCCNC(=N)N)C(=O)O)[C@@H](C)O` [compound 37416, AGWKDFTAYR] (H-AGWKDFTAYR-OH): the IC50 in the series on NO/cGMP signaling is around 1 µM. On the same count and under the same terms, then `CC[C@H](C)[C@H](N)C(=O)NCC(=O)N[C@@H](Cc1ccc(O)cc1)C(=O)N[C@@H](CCCCN)C(=O)N[C@@H](CC(=O)O)C(=O)N[C@@H](Cc1ccccc1)C(=O)N[C@H](C(=O)N[C@@H](C)C(=O)N[C@@H](Cc1ccc(O)cc1)C(=O)N[C@@H](CCCNC(=N)N)C(=O)O)[C@@H](C)O` [compound 37417, IGYKDFTAYR] (H-IGYKDFTAYR-OH), with around 0.1 µM; and `CC[C@H](C)[C@H](N)C(=O)NCC(=O)N[C@@H](Cc1c[nH]c2ccccc12)C(=O)N[C@@H](CCCCN)C(=O)N[C@@H](CC(=O)O)C(=O)N[C@@H](Cc1ccccc1)C(=O)N[C@H](C(=O)N[C@@H](C)C(=O)N[C@@H](C)C(=O)N[C@@H](CCCNC(=N)N)C(=O)O)[C@@H](C)O` [compound 37555, IGWKDFTAAR] (H-IGWKDFTAAR-OH), with around 10 µM. In the case of `FC(F)OC(Cl)C(F)(F)F` (stereo not shown) [isoflurane, Isoflurane], the “blood pressure under general anesthesia” value was “significant decreases in systolic, diastolic and mean arterial blood pressures” in series [1] (TSP1-null animals); “very modest overall drop in mean arterial pressure” in series [1] (wild type mice). Regarding “E123CaG-1: recombinant C-terminal domains of TSP1”, the “NO delay of thrombin-induced platelet aggregation” value (“NO delay” below) with human platelets [2] (high shear, thrombin 0.2 U/ml) was “blocked the ability of NO to delay thrombin-induced aggregation”; with human platelets [2] (static / low shear conditions), “reversed the NO delay of aggregation under static conditions”. The “NO stimulated cGMP in platelets” value with human platelets [3] was “inhibited NO stimulated cGMP flux”. For the molecule “FIRGGMYEGKK [compound 604, control peptide for 7N3]”, in the series on human platelets [2] (high shear, thrombin 0.2 U/ml), the “NO delay” value is recorded as “no effect”. Take “FIRVAIYEGKK [compound 605, control peptide for 7N3]”: the “NO delay” value with human platelets [2] (high shear, thrombin 0.2 U/ml) is given as “no effect”. For the molecule IGWKAFTAYR [compound 37296], the “cGMP signaling IC50” value in the series with NO/cGMP signaling was “inactive”. Turning to IGWKDFTAYK [compound 37554], the “cGMP signaling IC50” value in the series with NO/cGMP signaling was “inactive”.

As to KRFKQDGGWSHWSPWSS [p246], the “NO delay” value in the series with human platelets [2] (static / low shear conditions) is “inactive”. Take “KRFYVVMWKK [4N1K, derivative of the 4N1-1 peptide with terminal lysines]”: in the series on human platelets [2] (static / low shear conditions), the “NO delay” value is listed as “prevented an NO-stimulated delay in platelet aggregation”. On to “RFYGGMWK [p4N1G, control peptide, VVM substituted by GGM]”, for which, in the series with HUVEC, the “NO-stimulated endothelial cell adhesion on type I collagen” value (from here on “NO-stimulated endothelial cell adhesion”) is recorded as “did not significantly inhibit”. Regarding RFYVVMWK [4N1-1], the “NO-stimulated endothelial cell adhesion” value in the series with HUVEC was “inhibited NO-stimulated endothelial cell adhesion”. Also, the “NO delay” value in the series on human platelets [2] (static / low shear conditions) is given as “prevented an NO-stimulated delay in platelet aggregation”.

In the case of VTAGGGVQKRSRL [p906], in the series on HUVEC, the “NO-stimulated endothelial cell adhesion” value is listed as “inhibited NO-stimulated endothelial cell adhesion”. In addition, the “NO delay” value in the series on human platelets [2] (static / low shear conditions) is reported as “reversed an NO-stimulated delay of platelet aggregation”. fibrinogen: the “NO delay” value with human platelets [2] (high shear, thrombin 0.2 U/ml) is given as “no significant effect”. fibronectin [reference compound]: the “NO delay” value in the series on human platelets [2] (high shear, thrombin 0.2 U/ml) is “no significant effect”. Further, in the series on human platelets [3], the “NO stimulated cGMP in platelets” value was “no inhibition”.
